From ChEMBL document CHEMBL1134322, “A novel approach for the development of selective Cdk4 inhibitors: library design based on locations of Cdk4 specific amino acid residues” (J Med Chem, 2001)

What was measured:
[1] = target: Cyclin-dependent kinase 2/cyclin A (Homo sapiens, UniProt P24941); assay: Inhibition of human recombinant cyclin A-CDK2; assay type: protein-complex assay
[2] = species on record: Homo sapiens; assay: Selectivity for CDK4 over CDK1
[3] = target: Cyclin-dependent kinase 2 and 4 (CDK2 and CDK4) (Homo sapiens) (UniProt P11802+P24941); assay: Selectivity for CDK4 over CDK2; assay type: protein assay
[4] = Inhibition of human recombinant cyclin D2-CDK4
[5] = target: Cyclin-dependent kinase 1/cyclin B (Homo sapiens, UniProt P06493); assay: Inhibition of human recombinant cyclin B-CDK1; assay type: protein-complex assay
[6] = target: T1, Tyrosine-protein kinase ZAP-70 (Homo sapiens, UniProt P43403); assay: Inhibition of Zap70 tyrosine kinase.
T1 sequence (P43403 whole entry): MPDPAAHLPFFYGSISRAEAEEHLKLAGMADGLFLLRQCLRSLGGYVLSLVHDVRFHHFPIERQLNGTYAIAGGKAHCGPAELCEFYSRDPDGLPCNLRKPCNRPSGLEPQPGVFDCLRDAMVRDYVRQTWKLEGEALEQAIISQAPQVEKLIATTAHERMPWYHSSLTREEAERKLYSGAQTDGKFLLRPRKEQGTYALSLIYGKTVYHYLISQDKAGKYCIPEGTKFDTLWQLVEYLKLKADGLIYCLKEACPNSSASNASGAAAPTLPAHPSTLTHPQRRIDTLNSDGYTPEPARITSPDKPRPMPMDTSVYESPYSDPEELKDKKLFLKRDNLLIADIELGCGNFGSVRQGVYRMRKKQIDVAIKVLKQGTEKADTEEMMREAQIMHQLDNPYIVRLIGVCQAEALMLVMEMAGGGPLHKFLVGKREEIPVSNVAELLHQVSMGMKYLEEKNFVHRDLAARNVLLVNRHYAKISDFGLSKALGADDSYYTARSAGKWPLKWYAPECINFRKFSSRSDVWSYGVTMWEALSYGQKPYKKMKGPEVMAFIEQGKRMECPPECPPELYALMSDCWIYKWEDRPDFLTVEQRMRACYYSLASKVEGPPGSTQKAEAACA

[7] = target: Protein kinase C (PKC); assay: Inhibition of PKC ser/thr kinase.; assay type: protein assay, Homo sapiens
[8] = target: RAC-alpha serine/threonine-protein kinase (Homo sapiens, UniProt P31749); assay: Inhibition of PKBalpha (Akt1) ser/thr kinase.
[9] = target: Platelet-derived growth factor receptor beta (Homo sapiens, UniProt P09619); assay: Inhibition of PDGFRbeta tyrosine kinase.
[10] = target: Dual specificity mitogen-activated protein kinase kinase 1 (Homo sapiens, UniProt Q02750); assay: Inhibition of mitogen activated protein kinase kinase 1
[11] = target: Vascular endothelial growth factor receptor 1 (Homo sapiens, UniProt P17948); assay: Inhibition of Flt-1 tyrosine kinase.
[12] = target: cAMP-dependent protein kinase (PKA) (Homo sapiens, UniProt P22694+P17612+P22612); assay: Inhibition of PKA ser/thr kinase.; assay type: protein assay
[13] = target: Mitogen-activated protein kinase 3 (Homo sapiens, UniProt P27361); assay: Inhibition of ERK1 ser/thr kinase.
[14] = target: Mitogen-activated protein kinase 14 (Homo sapiens, UniProt Q16539); assay: Inhibition of p38-alpha ser/thr kinase.
[15] = target: Tyrosine-protein kinase Lck (Homo sapiens, UniProt P06239); assay: Inhibition of Lck tyrosine kinase.
[16] = target: CaM kinase II (Homo sapiens, UniProt Q13557+Q13555+Q13554+Q9UQM7); assay: Inhibition of calcium/calmodulin-dependent protein kinase type II; assay type: protein assay
[17] = target: Fibroblast growth factor receptor 1 (Homo sapiens, UniProt P11362); assay: Inhibition of fibroblast growth factor receptor 1
[18] = target: Proto-oncogene tyrosine-protein kinase Src (Homo sapiens, UniProt P12931); assay: Inhibition of Src tyrosine kinase.
[19] = target: CDK6/cyclin D1 (Homo sapiens, UniProt Q00534); assay: Inhibition of cyclin D1-CDK6 ser/thr kinase.; assay type: protein-complex assay
[20] = Inhibition of cyclin D2-CDK4 ser/thr kinase.; parameters: species or system Homo sapiens

Sequence of Platelet-derived growth factor receptor beta (P09619 whole entry): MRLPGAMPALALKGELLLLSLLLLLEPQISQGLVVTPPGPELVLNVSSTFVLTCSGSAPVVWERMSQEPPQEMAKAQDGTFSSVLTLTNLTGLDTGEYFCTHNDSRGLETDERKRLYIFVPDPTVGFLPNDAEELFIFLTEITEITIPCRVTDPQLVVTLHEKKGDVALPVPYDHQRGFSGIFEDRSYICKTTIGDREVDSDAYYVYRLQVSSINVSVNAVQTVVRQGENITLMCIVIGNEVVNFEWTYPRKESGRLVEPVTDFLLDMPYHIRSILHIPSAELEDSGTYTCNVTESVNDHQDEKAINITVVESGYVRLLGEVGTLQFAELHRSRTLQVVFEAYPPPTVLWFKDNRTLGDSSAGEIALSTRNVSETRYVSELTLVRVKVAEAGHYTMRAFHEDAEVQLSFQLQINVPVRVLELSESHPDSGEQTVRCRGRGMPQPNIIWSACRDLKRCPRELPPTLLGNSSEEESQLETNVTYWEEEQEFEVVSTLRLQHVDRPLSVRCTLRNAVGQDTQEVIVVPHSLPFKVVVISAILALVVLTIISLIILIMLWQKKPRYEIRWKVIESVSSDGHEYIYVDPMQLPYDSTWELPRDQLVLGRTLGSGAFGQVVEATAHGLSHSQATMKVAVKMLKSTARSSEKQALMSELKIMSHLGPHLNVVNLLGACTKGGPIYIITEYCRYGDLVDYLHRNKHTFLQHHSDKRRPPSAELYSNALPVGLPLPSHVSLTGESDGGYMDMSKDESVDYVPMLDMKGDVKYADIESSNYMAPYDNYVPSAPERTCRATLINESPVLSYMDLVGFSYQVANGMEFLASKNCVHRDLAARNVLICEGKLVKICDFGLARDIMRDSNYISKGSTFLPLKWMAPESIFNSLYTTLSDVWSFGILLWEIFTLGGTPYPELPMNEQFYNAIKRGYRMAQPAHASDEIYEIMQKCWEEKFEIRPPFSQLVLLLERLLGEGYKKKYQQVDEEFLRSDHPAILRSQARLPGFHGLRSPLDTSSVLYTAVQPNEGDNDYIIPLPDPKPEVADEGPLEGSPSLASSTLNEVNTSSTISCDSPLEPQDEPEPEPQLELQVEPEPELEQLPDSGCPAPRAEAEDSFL
Sequence of Mitogen-activated protein kinase 3 (P27361 whole entry): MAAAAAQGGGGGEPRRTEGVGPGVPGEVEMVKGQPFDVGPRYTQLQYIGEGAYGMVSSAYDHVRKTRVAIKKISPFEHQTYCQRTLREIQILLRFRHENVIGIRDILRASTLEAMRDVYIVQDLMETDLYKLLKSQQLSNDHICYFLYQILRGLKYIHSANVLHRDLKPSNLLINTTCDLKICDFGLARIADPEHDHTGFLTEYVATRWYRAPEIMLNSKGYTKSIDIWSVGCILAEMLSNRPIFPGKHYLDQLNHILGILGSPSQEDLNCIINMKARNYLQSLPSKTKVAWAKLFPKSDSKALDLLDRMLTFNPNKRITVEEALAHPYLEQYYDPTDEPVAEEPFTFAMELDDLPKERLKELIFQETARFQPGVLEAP
Sequence of Fibroblast growth factor receptor 1 (P11362 whole entry): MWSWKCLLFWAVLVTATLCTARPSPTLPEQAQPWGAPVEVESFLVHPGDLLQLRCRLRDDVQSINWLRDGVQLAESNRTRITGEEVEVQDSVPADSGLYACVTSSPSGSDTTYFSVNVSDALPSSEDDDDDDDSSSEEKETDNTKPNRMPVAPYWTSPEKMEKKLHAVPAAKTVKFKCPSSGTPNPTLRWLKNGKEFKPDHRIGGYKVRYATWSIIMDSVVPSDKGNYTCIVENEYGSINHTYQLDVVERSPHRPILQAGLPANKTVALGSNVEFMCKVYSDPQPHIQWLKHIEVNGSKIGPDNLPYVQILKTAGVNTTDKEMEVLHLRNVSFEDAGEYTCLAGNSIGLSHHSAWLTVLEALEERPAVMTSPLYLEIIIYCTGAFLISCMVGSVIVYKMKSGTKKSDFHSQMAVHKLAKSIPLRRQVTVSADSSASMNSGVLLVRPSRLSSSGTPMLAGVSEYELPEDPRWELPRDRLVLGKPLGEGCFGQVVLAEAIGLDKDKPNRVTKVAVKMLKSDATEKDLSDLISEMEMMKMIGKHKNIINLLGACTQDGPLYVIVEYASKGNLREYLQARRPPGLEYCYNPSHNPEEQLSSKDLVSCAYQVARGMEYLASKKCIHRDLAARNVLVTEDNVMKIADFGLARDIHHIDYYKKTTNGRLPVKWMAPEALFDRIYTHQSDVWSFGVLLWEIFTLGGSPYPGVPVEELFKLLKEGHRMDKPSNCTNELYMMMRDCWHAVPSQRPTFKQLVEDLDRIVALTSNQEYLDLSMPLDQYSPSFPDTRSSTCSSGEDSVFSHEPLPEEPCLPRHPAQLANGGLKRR
Sequence of Proto-oncogene tyrosine-protein kinase Src (P12931 2-536 limits assumed): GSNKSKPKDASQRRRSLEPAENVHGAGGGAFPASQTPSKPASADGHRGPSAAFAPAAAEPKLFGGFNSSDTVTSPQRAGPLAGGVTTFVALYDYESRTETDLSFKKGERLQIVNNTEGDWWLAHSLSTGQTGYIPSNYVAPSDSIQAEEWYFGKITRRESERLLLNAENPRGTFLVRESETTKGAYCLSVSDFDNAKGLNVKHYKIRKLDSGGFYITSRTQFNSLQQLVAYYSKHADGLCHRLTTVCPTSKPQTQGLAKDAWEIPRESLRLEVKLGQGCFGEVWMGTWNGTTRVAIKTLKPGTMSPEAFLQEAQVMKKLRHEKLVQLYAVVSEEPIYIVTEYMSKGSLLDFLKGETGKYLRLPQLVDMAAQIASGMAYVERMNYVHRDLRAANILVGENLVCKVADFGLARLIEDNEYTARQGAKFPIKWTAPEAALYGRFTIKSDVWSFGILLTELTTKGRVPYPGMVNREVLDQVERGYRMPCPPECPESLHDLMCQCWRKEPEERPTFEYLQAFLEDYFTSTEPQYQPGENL
Sequence of Mitogen-activated protein kinase 14 (Q16539 whole entry): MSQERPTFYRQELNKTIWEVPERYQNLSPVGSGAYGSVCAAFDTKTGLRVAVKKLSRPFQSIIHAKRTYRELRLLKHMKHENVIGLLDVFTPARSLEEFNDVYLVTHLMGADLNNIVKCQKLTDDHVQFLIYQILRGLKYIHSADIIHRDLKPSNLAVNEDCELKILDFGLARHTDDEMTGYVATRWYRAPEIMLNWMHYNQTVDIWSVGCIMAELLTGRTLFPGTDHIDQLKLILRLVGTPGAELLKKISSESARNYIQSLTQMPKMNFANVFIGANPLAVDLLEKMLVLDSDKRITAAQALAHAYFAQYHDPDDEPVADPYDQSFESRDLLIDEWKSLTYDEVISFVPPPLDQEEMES
Sequence of CDK6/cyclin D1 (P24385 whole entry): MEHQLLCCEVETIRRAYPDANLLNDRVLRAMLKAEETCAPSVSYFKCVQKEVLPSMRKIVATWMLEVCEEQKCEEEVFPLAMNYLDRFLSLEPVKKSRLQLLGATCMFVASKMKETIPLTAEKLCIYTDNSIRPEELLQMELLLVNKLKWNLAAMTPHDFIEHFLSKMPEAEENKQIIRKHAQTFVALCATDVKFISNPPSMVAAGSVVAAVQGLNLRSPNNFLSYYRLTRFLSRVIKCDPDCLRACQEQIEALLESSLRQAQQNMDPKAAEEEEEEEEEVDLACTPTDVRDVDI
Sequence of CDK6/cyclin D1 (Q00534 whole entry): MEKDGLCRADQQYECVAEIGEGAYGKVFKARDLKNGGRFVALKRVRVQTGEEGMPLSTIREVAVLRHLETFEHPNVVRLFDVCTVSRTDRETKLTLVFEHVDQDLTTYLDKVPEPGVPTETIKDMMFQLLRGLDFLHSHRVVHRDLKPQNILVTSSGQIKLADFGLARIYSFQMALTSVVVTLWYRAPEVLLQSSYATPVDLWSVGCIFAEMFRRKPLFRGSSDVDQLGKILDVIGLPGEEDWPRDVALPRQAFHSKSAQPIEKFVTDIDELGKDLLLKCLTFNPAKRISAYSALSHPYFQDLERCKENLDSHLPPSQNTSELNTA
Sequence of RAC-alpha serine/threonine-protein kinase (P31749 whole entry): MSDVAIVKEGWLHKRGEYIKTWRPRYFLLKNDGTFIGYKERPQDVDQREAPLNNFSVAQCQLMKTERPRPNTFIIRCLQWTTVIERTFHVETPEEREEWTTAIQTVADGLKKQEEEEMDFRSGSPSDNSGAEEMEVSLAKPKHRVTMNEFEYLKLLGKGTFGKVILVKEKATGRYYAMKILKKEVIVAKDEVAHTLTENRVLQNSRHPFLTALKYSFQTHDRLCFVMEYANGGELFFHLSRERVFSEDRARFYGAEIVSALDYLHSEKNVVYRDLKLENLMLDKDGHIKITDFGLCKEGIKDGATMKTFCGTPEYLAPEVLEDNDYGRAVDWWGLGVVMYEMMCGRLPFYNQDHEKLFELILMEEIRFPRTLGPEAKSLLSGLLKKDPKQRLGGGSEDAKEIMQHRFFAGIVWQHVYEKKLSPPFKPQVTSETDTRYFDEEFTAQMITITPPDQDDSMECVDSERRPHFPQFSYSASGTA
Sequence of Dual specificity mitogen-activated protein kinase kinase 1 (Q02750 whole entry): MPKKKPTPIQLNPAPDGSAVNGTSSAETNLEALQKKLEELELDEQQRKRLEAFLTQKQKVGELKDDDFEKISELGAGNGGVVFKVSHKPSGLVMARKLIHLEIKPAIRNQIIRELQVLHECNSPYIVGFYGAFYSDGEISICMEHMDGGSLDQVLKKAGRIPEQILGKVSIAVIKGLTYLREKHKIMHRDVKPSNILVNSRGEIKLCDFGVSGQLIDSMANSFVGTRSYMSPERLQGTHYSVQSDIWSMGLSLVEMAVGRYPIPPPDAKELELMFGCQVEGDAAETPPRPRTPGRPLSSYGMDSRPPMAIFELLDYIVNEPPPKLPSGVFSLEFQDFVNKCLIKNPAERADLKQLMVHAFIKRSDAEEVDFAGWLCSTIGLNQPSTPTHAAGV

SMILES | IC50 [1] [µM] | Selectivity [3] | IC50 [4] [µM] | further results
O=C(Nc1cc(CNC2CCCC2)n[nH]1)Nc1cccc2c1C1CCCN1C2=O (stereo unspecified) | 9.7 |  |  | 
O=C(Nc1cc([C@@H]2CCCN2)[nH]n1)Nc1cccc2c1[C@@H]1CCCN1C2=O |  | 120 | 0.21 | Selectivity [2]: 130
O=C(Nc1cc(CNC2CCCC2)[nH]n1)Nc1cccc2c1C1CCCN1C2=O (stereo unspecified) |  | 150 | 0.065 | 
CCCNCc1cc(NC(=O)Nc2cccc3c2C2CCCN2C3=O)[nH]n1 (stereo unspecified) | 12 | 75 | 0.16 | 
CNCc1cc(NC(=O)Nc2cccc3c2C2CCCN2C3=O)[nH]n1 (stereo unspecified) | 14 | 48 | 0.29 | 
O=C(Nc1cc([C@@H]2CCCN2)[nH]n1)Nc1cccc2c1[C@H]1CCCN1C2=O | 25 | 110 | 0.22 | Selectivity [2]: 140; IC50 [5]: 31 µM
CC(C)NCc1cc(NC(=O)Nc2cccc3c2C2CCCN2C3=O)[nH]n1 (stereo unspecified) | 17 | 130 | 0.13 | 
O=C(Nc1cc([C@@H]2CCCN2)n[nH]1)Nc1cccc2c1[C@@H]1CCCN1C2=O | 25 |  |  | IC50 [5]: 28 µM
O=C(Nc1ccccn1)Nc1cccc2c1[C@H]1CCCN1C2=O |  |  |  | IC50 [6]: > 10 µM; IC50 [7]: > 20 µM; IC50 [8]: > 10 µM; IC50 [9]: 5 µM; IC50 [10]: > 10 µM; IC50 [11]: 2.8 µM; IC50 [12]: > 20 µM; IC50 [13]: > 10 µM; IC50 [14]: > 10 µM; IC50 [15]: 2.3 µM; IC50 [16]: > 10 µM; IC50 [17]: 6.7 µM; IC50 [18]: > 5 µM; IC50 [19]: 0.071 µM; IC50 [20]: 0.042 µM
O=C(Nc1cc[nH]n1)Nc1cccc2c1[C@@H]1CCCN1C2=O |  |  | 0.029 | 
O=C(Nc1cc(CN2CCCCC2)[nH]n1)Nc1cccc2c1C1CCCN1C2=O (stereo unspecified) | 12 | 48 | 0.25 | 
O=C(Nc1cc[nH]n1)Nc1cccc2c1[C@H]1CCCN1C2=O |  |  | 0.021 | 
O=C(Nc1cc(CNC2CCCCC2)[nH]n1)Nc1cccc2c1C1CCCN1C2=O (stereo unspecified) | 20 | 27 | 0.72 | 
CC(C)(C)NCc1cc(NC(=O)Nc2cccc3c2C2CCCN2C3=O)[nH]n1 (stereo unspecified) | 9.8 | 180 | 0.056 | 
O=C(Nc1cc(CN2CCCC2)[nH]n1)Nc1cccc2c1C1CCCN1C2=O (stereo unspecified) | 7.5 | 16 | 0.47 | 
